We go through nine compounds from PubChem BioAssay (NCI).

SMILES strings stand for the structures.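 Values below derive from 48-hour exposures of cells grown in 96-well plates, with endpoints linearly interpolated between the two concentrations bracketing the appropriate inhibition level. GI50 is the concentration that inhibits growth by half. TGI is the concentration that stops growth completely.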

Some test systems named below: MDA-MB-231 breast; LOX IMVI melanoma; SNB-19 CNS; HCT-116 colon; SW-620 colon; A498 renal; SK-MEL-2 melanoma; IGROV1 ovarian.
Common to all, as to test: growth of human tumour cells (NCI), 48 h

Turning to `COc1ccc2c(c1)CCc1[nH]nc(-c3cc(OC)c(OC)c(OC)c3)c1-2`, the GI50 with MDA-MB-231 breast, with LOX IMVI melanoma, in the test on SNB-19 CNS, in the test on HCT-116 colon, in the test with SW-620 colon and with A498 renal was less than 0.01 µM in each case. For the same compound, the GI50 in the test with SK-MEL-2 melanoma and in the test with IGROV1 ovarian was less than 0.01 µM throughout. Moreover, the TGI in the test with MDA-MB-231 breast was 44.8 µM; in the test with LOX IMVI melanoma, 11.8 µM; in the test on SNB-19 CNS, 46.2 µM; in the test on HCT-116 colon, 1.16 µM; in the test with SW-620 colon, 14.5 µM; with A498 renal, less than 0.01 µM. Also, the TGI with SK-MEL-2 melanoma amounted to 26.8 µM; in the test with IGROV1 ovarian it was 23.7 µM.

With `CCN(CC)CCCC(C)Nc1c2ccc(Cl)cc2nc2cc(OC)c(OC)cc12` (stereo unspecified), the GI50 was 1.52 µM in the test on MDA-MB-231 breast; 1.23 µM in the test on LOX IMVI melanoma; 2.18 µM in the test on SNB-19 CNS; 0.861 µM with HCT-116 colon; 1.35 µM in the test on SW-620 colon; 7.07 µM in the test on A498 renal. The GI50 is 2.64 µM in the test with SK-MEL-2 melanoma and 2.15 µM in the test with IGROV1 ovarian. Also, the TGI was 3.97 µM in the test on MDA-MB-231 breast; 2.64 µM in the test with LOX IMVI melanoma; 8.98 µM in the test with SNB-19 CNS; 4.28 µM with HCT-116 colon; 7.54 µM in the test with SW-620 colon; 22.2 µM with A498 renal. The TGI was 5.73 µM in the test with SK-MEL-2 melanoma and 9.96 µM in the test on IGROV1 ovarian.

`Cc1cccc(Cl)c1NC(=O)c1cnc(Nc2cc(N3CCOCC3)cc(N3CCOCC3)c2)s1`: the GI50 in the test with MDA-MB-231 breast is 0.0189 µM; with LOX IMVI melanoma, 0.012 µM; with SNB-19 CNS, greater than 3.36 µM; in the test on HCT-116 colon, 0.0328 µM; in the test on SW-620 colon it was greater than 6.79 µM; in the test with A498 renal, 0.0248 µM. The values for the GI50 in the test with SK-MEL-2 melanoma and with IGROV1 ovarian were greater than 5.25 µM and 0.00355 µM, respectively. Further, the TGI with MDA-MB-231 breast is greater than 4.59 µM; in the test on LOX IMVI melanoma, 0.083 µM; in the test with SNB-19 CNS, greater than 10 µM; in the test on HCT-116 colon, greater than 10 µM; in the test on SW-620 colon it was greater than 10 µM; in the test with A498 renal, 0.473 µM. For the same compound, the TGI with SK-MEL-2 melanoma is greater than 10 µM; in the test with IGROV1 ovarian it was 0.0621 µM.

Take `Cc1cc([N+](=O)[O-])ccc1NS(=O)(=O)c1cc(Cl)ccc1Cl`: the GI50 in the test on MDA-MB-231 breast is 3.36 µM; with LOX IMVI melanoma it was 3.44 µM; in the test with SNB-19 CNS it was 3.4 µM; in the test with HCT-116 colon it was 2.85 µM; with SW-620 colon, 4.36 µM; with A498 renal, 1.43 µM. The results for the GI50 in the test on SK-MEL-2 melanoma and in the test on IGROV1 ovarian were 2.67 µM and 4.61 µM, respectively. Moreover, the TGI in the test with MDA-MB-231 breast is 16.2 µM; with LOX IMVI melanoma, 13 µM; in the test with SNB-19 CNS, greater than 100 µM; in the test on HCT-116 colon, 11.9 µM; with SW-620 colon it was greater than 100 µM; in the test with A498 renal it was 6.24 µM. Further, the TGI is 8.56 µM in the test with SK-MEL-2 melanoma and greater than 100 µM in the test on IGROV1 ovarian.

With `O=C1c2cc(-c3ccccc3)ccc2-c2c1c1ccc([N+](=O)[O-])cc1c(=O)n2CCCBr`, the GI50 in the test with MDA-MB-231 breast was greater than 38.9 µM; in the test on LOX IMVI melanoma, greater than 50 µM; with SNB-19 CNS, greater than 36.8 µM; with HCT-116 colon, greater than 50 µM; in the test on SW-620 colon, greater than 50 µM; with A498 renal, 32.5 µM. Further, the GI50 with SK-MEL-2 melanoma and with IGROV1 ovarian was greater than 50 µM throughout. The TGI in the test on MDA-MB-231 breast, in the test on LOX IMVI melanoma, in the test with SNB-19 CNS, with HCT-116 colon, in the test with SW-620 colon and with A498 renal was greater than 50 µM in each case. Moreover, the TGI in the test on SK-MEL-2 melanoma and in the test on IGROV1 ovarian was greater than 50 µM in each case.

In the case of `COc1cc(F)cc([C@@H](CO)NC(=O)[C@@H](C)N2Cc3ccc(-c4nc(NC5CCOCC5)ncc4Cl)cc3C2=O)c1`, the GI50 with MDA-MB-231 breast was less than 0.0175 µM; in the test with LOX IMVI melanoma, less than 0.0181 µM; in the test on SNB-19 CNS it was 1.73 µM; with HCT-116 colon, 0.0173 µM; in the test on SW-620 colon it was 0.0761 µM; in the test with A498 renal, 0.0878 µM. Also, the GI50 with IGROV1 ovarian is 0.0409 µM. The TGI is 18.7 µM with MDA-MB-231 breast; 11.8 µM in the test with LOX IMVI melanoma; greater than 100 µM in the test on SNB-19 CNS; greater than 54.9 µM in the test with HCT-116 colon; greater than 100 µM in the test on SW-620 colon; 5.86 µM with A498 renal. In the test on IGROV1 ovarian, this compound had a TGI of 35.6 µM.

With `COc1c2c(c(CC=C(C)C)c3oc(=O)c(-c4ccc(O)cc4)c(O)c13)OC(C)(C)C=C2`, the TGI in the test on MDA-MB-231 breast was 65 µM; in the test with LOX IMVI melanoma, greater than 100 µM; in the test on SNB-19 CNS it was greater than 100 µM; with HCT-116 colon, 37.5 µM; in the test on SW-620 colon, greater than 100 µM; in the test on A498 renal it was greater than 100 µM. Moreover, the TGI in the test on SK-MEL-2 melanoma came to 52.8 µM; in the test with IGROV1 ovarian, 44.9 µM.

For the compound `C[C@@H](NC(=O)[C@@H](CC(=O)N1CCC(N2CCCCC2)CC1)N1C(=O)[C@@H](N2C(=O)OC[C@@H]2c2ccccc2)[C@H]1/C=C/c1cccc(Cl)c1)c1ccccc1`, the GI50 in the test on MDA-MB-231 breast is 1.9 µM; in the test on LOX IMVI melanoma it was 1.46 µM; in the test on SNB-19 CNS it was 2.77 µM; with HCT-116 colon, 1.97 µM; in the test on SW-620 colon it was 2.06 µM; with A498 renal, 13.2 µM. The GI50 was 2.25 µM with SK-MEL-2 melanoma and 4.62 µM in the test on IGROV1 ovarian. Moreover, the TGI in the test with MDA-MB-231 breast was determined as 3.87 µM; in the test on LOX IMVI melanoma, 3.06 µM; with SNB-19 CNS, 7.57 µM; with HCT-116 colon it was 4.11 µM; with SW-620 colon, 4.7 µM; with A498 renal it was 27.7 µM. In addition, the TGI amounted to 5.36 µM in the test with SK-MEL-2 melanoma and 19.2 µM in the test on IGROV1 ovarian.

In the case of `Cc1cc(Oc2cnc(=O)[nH]c2)cs1`, the TGI in the test with MDA-MB-231 breast, in the test on LOX IMVI melanoma, with SNB-19 CNS, with HCT-116 colon, with SW-620 colon and in the test with A498 renal was greater than 100 µM throughout. The TGI in the test on SK-MEL-2 melanoma and in the test on IGROV1 ovarian was greater than 100 µM each time.
